Patent US20260209777A1, “TARGETING GLYCOSYLPHOSPHATIDYLINOSITOL (GPI) PATHWAY PROTEINS TO TREAT OVARIAN CANCER” (UNIVERSITY OF MASSACHUSETTS, priority 2023, published 2026)

Assays:
Format in all cases: cell-based, human
[1] = tested on: CD24 cell surface expression in OVCAR8 cells; assay: CD24 flow cytometry analysis in OVCAR8 cells; settings: OVCAR8; 3 days; bestatin 10 or 20 μM, tosedostat 5 or 10 μM, ARM1 1 or 2 μM; vs DMSO
Protocol: (§1) Flow Cytometry Analysis: For cell surface protein staining, 1×10^5-1×10^6 cells were first incubated with Fc receptor blocking solution, Human TruStain FcXTM (BioLegend, Cat #422301) for 10 minutes at room temperature. Cells were washed once in FACS buffer (1×PBS, 1.0% bovine serum albumin (BSA) (Sigma) and 0.2% sodium azide (Sigma), and then incubated with antibodies (given below) for 30 minutes at 4° C. in the dark. Cells were also stained with 7-AAD (Biolegend, Cat #420404) for dead cell exclusion, and flow cytometry analysis was performed using a Bio-Rad ZE5 Cell Analyzer. Following antibodies used in this study (all antibodies were used at 1:50 dilution unless otherwise noted): APC anti-human CD24 (BioLegend, Cat #311118, clone ML5), PE anti-human CD24 (eBioscience, Cat #12-0247-42, clone SN3), APC anti-human CD47 (BioLegend, Cat #323124, clone CC2C6), APC anti-human § 2-microglobulin (BioLegend, Cat #395711, clone […]), PE anti-human HLA-A2 (MHC-class I) (BioLegend, Cat #343305, clone BB7.2), APC anti-human CD11b (BioLegend, Cat #982604, clone ICRF44), APC anti-mouse F4/80 antibody (BioLegend, Cat #123116, clone BM8), APC-streptavidin (Thermo Fisher Scientific, Cat #SA1005, 1:100 dilution), PE anti-Calreticulin (Invitrogen, Catalog #MA5-15382, 1:200 dilution). For intracellular staining, cells were fixed with 1% paraformaldehyde for 5 min and permeabilized using the True-Nuclear Transcription Factor Buffer Set (BioLegend, Cat #424401) before the addition of the antibody. Small Molecule Inhibitor and Drug Treatments: OVCAR8 or SKOV3 cells were treated for 3 days with bestatin (Ubenimex) (SelleckChem, Cat #S1591) at 5, 10 or 20 μM (as indicated in the figure legends), Tosedostat (Medchem Express, Cat #HY-14807) at 5 μM or 10 μM (as indicated in the figure legends) or ARM-1 (Medchem Express, Cat #HY-W027340) at 1, or 2 μM (as indicated in the figure legends). Inhibitors were replenished every 24 hours. DMSO (Sigma Aldrich, Cat #D8418) was used as a vehicle. OVCAR8 cells were treated with Docetaxel (SelleckChem, Cat #S1148) at 100 nM or Carboplatin (SelleckChem, Cat #S1215 at 100 nM or Doxorubicin (SelleckChem, Cat #E2516) at 50 nM for 12 hours.

[2] = tested on: OVCAR8 cells; assay: In vitro phagocytosis assay of OVCAR8 cells by PBMC-derived M2 macrophages; settings: OVCAR8; bestatin 20 μM, tosedostat 20 μM, ARM1 2 μM; vs DMSO
Source text: Macrophage Generation and Stimulation: Primary human donor-derived macrophages were generated as described previously (Martinez, Curr Protocol Immunol 2012, Chapter 14:14.28.1-14.28.23). In brief, Leukopaks from anonymous donors were obtained from the Rhode Island Blood (Providence, RI) and peripheral blood […] (PBMCs) were isolated by density gradients centrifugation using Ficoll Paque Plus (Sigma-Aldrich, Cat #17-1440-02) followed by RBC lysis using RBC lysis buffer (eBioscience, Cat #00-4333-57). For monocyte isolation, PBMCs were incubated in Monocyte Attachment Medium (Sigma-Aldrich, Cat #C-28051) for 1 hour at 37° C. and 5% CO2 and then washed three times in Iscove's Modified Dulbecco's Medium (IMDM) (Gibco, Cat #12440053) to remove non-adherent cells. The remaining monocytes were detached and seeded in 96-well plates and cultured at 37° C. and 5% CO2 in IMDM supplemented with 10% FBS (Atlanta Biologicals, Cat #S11550) and 20 ng/ml recombinant human M-CSF (Peprotech, Cat #AF-300-25). After 4 days monocytes were then treated with 20 ng/ml recombinant human IL-4 (Peprotech, Cat #200-04) and 10 ng/mL recombinant human IL-10 (PeproTech, Cat #200-10) for another 3-4 days to obtain M2 polarized macrophages. Macrophage differentiation was confirmed morphologically using microscopy. M2-macrophage polarization was confirmed by immunophenotyping of the M2 marker CD206 using PE-conjugated anti-human anti-CD206 antibody (BioLegend, Cat #321106, clone 15-2, 1:100 dilution). In vitro Phagocytosis Assays: To facilitate the quantification of phagocytic events, we adapted a microscopy-based fluorescence phagocytosis […] al., J Immunol Methods 2009, 342(1-2):71-7; Lindner et al., Biotechniques 2020, 68(5):245-250) for use with a Celigo imaging cytometer. […] Cells were incubated with pHrodo Red, SE (Invitrogen, Cat #P36600) on ice for 30 min and then co-cultured with PBMC-derived M2 macrophages (prepared as described above) at a ratio of 1:2 (OVCAR8/B cells: macrophages) for 2 hours in a humidified 5% CO2 incubator at 37° C. Phagocytic events were quantified by counting the number of red fluorescent (pHrodo+) cells per well using a Celigo Imaging Cytometer (Nexcelom). EmGFP was used for the visualization of cancer cells in imaging Phagocytic events were also quantified using a previously-described flow cytometry-based assay (Barkal et al., Nature 2019, 572(7769):392-396; […] et al., Biomedicines 2022, 10(5):1175). In brief, M2 macrophages co-cultured with OVCAR8/EmGFP-luc cells were detached using TrypLE Express (GibcoTM, cat #12604013), stained with APC anti-human CD11b clone ICRF44 (BioLegend, Cat #982604) and analyzed by flow cytometry (BioRad ZE5). Double-positive EmGFP+CD11b+ cells were considered phagocytic events.

[3] = tested on: CALR cell surface expression in OVCAR8 cells; assay: Flow cytometry analysis of Calreticulin (CALR) in OVCAR8 cells; settings: OVCAR8, 12 hours; docetaxel 100 nM, carboplatin 100 nM, doxorubicin 50 nM; vs DMSO (FIG. 11A)
Protocol: as §1, with “OVCAR8 cells were treated with Docetaxel (SelleckChem, Cat #S1148) at 100 nM or Carboplatin (SelleckChem, Cat #S1215 at 100 nM or Doxorubicin (SelleckChem, Cat #E2516) at 50 nM for 12 hours.” left out

Row | SMILES | CD24 cell surface expression (MFI) [1] | macrophage-mediated phagocytosis [2] | CALR cell surface expression [3]
1 | Nc1nc(-c2ccc(Cc3ccccc3)cc2)cs1 [ARM1] | decreased | increased | 
2 | N.N.O=C([O-])C1(C(=O)[O-])CCC1.[Pt+2] [carboplatin] |  |  | did not
3 | CC(=O)O[C@@]12CO[C@@H]1C[C@H](O)[C@@]1(C)C(=O)[C@H](O)C3=C(C)[C@@H](OC(=O)[C@H](O)[C@@H](NC(=O)OC(C)(C)C)c4ccccc4)C[C@@](O)([C@@H](OC(=O)c4ccccc4)[C@H]21)C3(C)C [docetaxel] |  |  | induced robust
4 | COc1cccc2c1C(=O)c1c(O)c3c(c(O)c1C2=O)C[C@@](O)(C(=O)CO)C[C@@H]3O[C@H]1C[C@H](N)[C@H](O)[C@H](C)O1 [doxorubicin] |  |  | did not
